Patent publication US20150306169A1, “METHOD AND COMPOSITIONS FOR SYNCHRONIZING TIME OF INSEMINATION IN GILTS” (JBS UNITED ANIMAL HEALTH II LLC, priority 2012, published 2015)

Columns and labels:
Format in all cases: in vivo, swine
[1] = system: gilts; experiment: Estrus observation, triptorelin gel dose study (Example 5); conditions: raw average, PTK 2-07
Method: (§1) All gilts were individually fed MATRIX® as a top-dress for 14 or 15 days at the recommended rate of 15 mg/gilt/day. Gilts were withdrawn from MATRIX® feeding (last top-dress in the morning on Day 0) and allocated to each of the following treatments. Controls were vehicle gel treated (vehicle gel without triptorelin) at 120 (+/−2) hours following MATRIX® withdrawal (last top dress). The other gilts were given 100, 200 or 400 mcg triptorelin as the acetate in a methylcellulose gel formulation 120 (+/−2) hours following MATRIX® withdrawal. The four treatments were: • 1. Vehicle gel (VG): vehicle gel without triptorelin at 120 (+/−2) hours after MATRIX® withdrawal. • 2. TG 100: 100 mcg (2 mL 50 mcg/mL) triptorelin gel at 120 (+/−2) hours after MATRIX® withdrawal. • 3. TG 200: 200 mcg (2 mL 100 mcg/mL) triptorelin gel at 120 (+/−2) hours after MATRIX® withdrawal. • 4. TG 400: 400 mcg (2 mL 200 mcg/mL) triptorelin gel at 120 (+/−2) hours after MATRIX® withdrawal.
For post-treatment estrus detection, gilts were housed in individual pens. Boars were housed in separate rooms, and/or at least 12 m away and downwind. To elicit signs of estrus, a mature boar was walked slowly in the alley in front of the gilts' crates, exposing each test gilt to visual, auditory and olfactory signals from the boar for up to 5 minutes. […]

[2] = system: gilts; experiment: Estrus observation after triptorelin gel (Example 1); conditions: raw average, PTK 1-07 (rep 3); 200 mcg T at 120 h post-MATRIX
Method: All gilts were individually fed MATRIX® as a top-dress for 14 days at the recommended rate of 15 mg/gilt/day. Gilts were withdrawn from MATRIX® feeding (last top feed in the morning on Day 0) and allotted to treatments. Controls were treated with a 1.2% methylcellulose gel formulation without triptorelin at 96 hours following MATRIX® withdrawal (last top-dress). The remaining gilts received 200 mcg triptorelin, as the acetate, in a 1.2% methylcellulose gel formulation intravaginally at various times after MATRIX® withdrawal. The four treatments were: 1) vehicle gel (VG) treatment at 96 hours after MATRIX® withdrawal, 2) triptorelin gel (TG) treatment at 96 hours after MATRIX® withdrawal, 3) TG treatment at 120 hours after MATRIX® withdrawal and 4) TG treatment at 144 hours after MATRIX® withdrawal. All gilts were monitored for their estrous and ovulatory status as described below. Gilts included in replicate 1 were selected from terminal line commercial production gilts located in grow/finish barns. Sexual maturity, as indicated by one or more estrous periods, was not verified prior to the start of MATRIX® feeding. Gilts included in replicate 2 were selected from a maternal line gilt population. Sexual maturity was verified by at least one estrous period verified and recorded prior to starting MATRIX® feeding. […]
Data were analyzed using the Mixed Models procedures of SAS. […]

[3] = system: gilts; experiment: Ovulation monitoring by transrectal ultrasonography, triptorelin gel dose 100-400 mcg at 120 h post-MATRIX (Example 5); conditions: for % of Sows Ovulating: raw average, PTK 2-07
Method: as §1
Ovulation was monitored twice on Day 5 (8 hours and 16 hours post-treatment) and every 8 hours on Day 6 and Day 7 or until ovulation was confirmed or 176 hours following last MATRIX® feeding. The ovulatory status of all gilts was monitored by transrectal ultrasonography. An Aloka 500 ultrasound machine is used for this purpose, with a 7.5 MHz linear array transducer attached to a fixed-angle PVC stabilizing rod to facilitate insertion into the rectum. The transducer and PVC rod are coated with a gynecological lubricant and gently inserted into the rectum until the ovaries can be visualized, one at a time. The diameters of the three largest follicles were recorded (to the nearest 0.1 mm) at each scanning. A gilt was declared to have ovulated when the number of large follicles (≧6.5 mm) fell to less than 3.
(§2) A single 2 mL dose of triptorelin gel or vehicle gel was deposited within approximately 1-2 cm posterior to the cervix with a catheter similar to those used for artificial insemination. The dose was delivered using a standard multi-dose applicator attached to the catheter. A new disposable sheath, which surrounds the catheter, was used for each gilt.

[4] = system: LH; experiment: Serum LH surge after triptorelin gel (Example 5)
Method: A catheter was inserted non-surgically into the jugular vein (Kraeling et al. 1982) of a subpopulation of gilts in each treatment group (vehicle gel, n=8; 100 mcg triptorelin, n=6; 200 mcg triptorelin, n=7 and 400 mcg triptorelin, n=6). Ten mL blood samples were collected every 15 minutes for one hour prior to treatment, immediately following treatment (0) and at 0.5, 1, 2, 4, 6, 12, 18, 24, 36 and 48 hours after treatment. Blood samples were maintained at 4° C. until centrifuged at 800 x g for 15 minutes within 12 hours of collection. The resulting serum was stored frozen until assayed for LH using validated procedures for pig serum (Kesner et al., 1987 and Kraeling et al., 1982). Onset, duration, and magnitude of the LH surge were analyzed. The LH data were analyzed with the General Linear Models procedure of SAS. Differences between treatments were tested on least squares means estimates using the T test at P<0.05. Onset of the LH surge is when serum LH concentration is greater than or equal to two standard deviations of the mean of the pre-treatment serum LH concentrations. Duration of the LH surge is the period between onset and when serum LH concentration is again less than or equal to two standard deviations of the mean of the pre-treatment serum LH concentrations. Magnitude of the LH surge is the maximum serum LH concentration reached during the LH surge.

[5] = system: gilts; experiment: Ovulation monitoring by transrectal ultrasonography after triptorelin gel at 96, 120 or 144 h post-MATRIX (Example 1); conditions: raw average, PTK 1-07 (rep 3), 200 mcg T at 120 h post-MATRIX
Method: All gilts were individually fed MATRIX® as a top-dress for 14 days at the recommended rate of 15 mg/gilt/day. Gilts were withdrawn from MATRIX® feeding (last top feed in the morning on Day 0) and allotted to treatments. Controls were treated with a 1.2% methylcellulose gel formulation without triptorelin at 96 hours following MATRIX® withdrawal (last top-dress). The remaining gilts received 200 mcg triptorelin, as the acetate, in a 1.2% methylcellulose gel formulation intravaginally at various times after MATRIX® withdrawal. The four treatments were: 1) vehicle gel (VG) treatment at 96 hours after MATRIX® withdrawal, 2) triptorelin gel (TG) treatment at 96 hours after MATRIX® withdrawal, 3) TG treatment at 120 hours after MATRIX® withdrawal and 4) TG treatment at 144 hours after MATRIX® withdrawal. All gilts were monitored for their estrous and ovulatory status as described below. Gilts included in replicate 1 were selected from terminal line commercial production gilts located in grow/finish barns. Sexual maturity, as indicated by one or more estrous periods, was not verified prior to the start of MATRIX® feeding. Gilts included in replicate 2 were selected from a maternal line gilt population. Sexual maturity was verified by at least one estrous period verified and recorded prior to starting MATRIX® feeding.
The ovulatory status of all gilts was monitored by transrectal ultrasonography. For replicate one, ovulation was monitored two times on Day 5, then three times a day from Day 6 to Day 8. For replicate two, ovulation was monitored three times a day from Day 5 to Day 8. An Aloka 500 ultrasound machine with a 7.5 MHz linear array transducer attached to a fixed-angle PVC stabilizing rod to facilitate insertion into the rectum was used for this purpose. The transducer and PVC rod were coated with a gynecological lubricant and gently inserted into the rectum until the ovaries were visualized, one at a time. The diameters of the three largest follicles were recorded (to the nearest 0.1 mm) at each scanning. A gilt was declared to have ovulated when the number of large follicles (≧6.5 mm) fell to less than 3.
as §2
Data were analyzed using the Mixed Models procedures of SAS. Models included main effects of time of treatment following the last feeding of MATRIX®, replicate, and treatment by replicate interaction. Differences between treatments were tested on least squares means estimates using the T test at P <0.05. Data for analysis were tested for assumptions of data normality.

[6] = 200 mcg T in gel at 120 h post-MATRIX, relative to time of treatment, one gilt with surge

CC(C)C[C@H](NC(=O)[C@@H](Cc1c[nH]c2ccccc12)NC(=O)[C@H](Cc1ccc(O)cc1)NC(=O)[C@H](CO)NC(=O)[C@H](Cc1c[nH]c2ccccc12)NC(=O)[C@H](Cc1c[nH]cn1)NC(=O)[C@@H]1CCC(=O)N1)C(=O)N[C@@H](CCCNC(=N)N)C(=O)N1CCC[C@H]1C(=O)NCC(N)=O [T, pGlu-His-Trp-Ser-Tyr-D-Trp-Leu-Arg-Pro-Gly-NH2]
Estrous Expression (%) ([1]; 100 mcg T at 120 h post-MATRIX): 75.0%
Estrous Expression (%) ([1]; 200 mcg T at 120 h post-MATRIX): 81.0%
Estrous Expression (%) [2]: 100.0%
Percentage ovulated by 48 hours ([3]; 100 mcg T in gel at 120 h post-MATRIX, catheterized subpopulation n = 6): 100%
Percentage ovulated by 48 hours ([3]; 200 mcg T in gel at 120 h post-MATRIX, catheterized subpopulation n = 7): 100%
Percentage ovulated by 48 hours ([3]; 400 mcg T in gel at 120 h post-MATRIX, catheterized subpopulation n = 6): 100%
% of Sows Ovulating ([3]; 100 mcg T at 120 h post-MATRIX, 128 h post-MATRIX (8 h post-T)): 0.0%
% of Sows Ovulating ([3]; 100 mcg T at 120 h post-MATRIX, 136 h post-MATRIX (16 h post-T)): 5.0%
% of Sows Ovulating ([3]; 100 mcg T at 120 h post-MATRIX, 144 h post-MATRIX (24 h post-T)): 20.0%
% of Sows Ovulating ([3]; 100 mcg T at 120 h post-MATRIX, 152 h post-MATRIX (32 h post-T)): 30.0%
% of Sows Ovulating ([3]; 100 mcg T at 120 h post-MATRIX, 160 h post-MATRIX (40 h post-T)): 60.0%
% of Sows Ovulating ([3]; 100 mcg T at 120 h post-MATRIX, 168 h post-MATRIX (48 h post-T)): 95.0%
% of Sows Ovulating ([3]; 100 mcg T at 120 h post-MATRIX, 176 h post-MATRIX (56 h post-T)): 100.0%
% of Sows Ovulating ([3]; 200 mcg T at 120 h post-MATRIX, 128 h post-MATRIX (8 h post-T)): 0.0%
% of Sows Ovulating ([3]; 200 mcg T at 120 h post-MATRIX, 136 h post-MATRIX (16 h post-T)): 0.0%
% of Sows Ovulating ([3]; 400 mcg T at 120 h post-MATRIX, 128 h post-MATRIX (8 h post-T)): 4.5%
% of Sows Ovulating ([3]; 400 mcg T at 120 h post-MATRIX, 136 h post-MATRIX (16 h post-T)): 9.1%
% of Sows Ovulating ([3]; 400 mcg T at 120 h post-MATRIX, 168 h post-MATRIX (48 h post-T)): 100.0%
% of Sows Ovulating ([3]; 400 mcg T at 120 h post-MATRIX, 176 h post-MATRIX (56 h post-T)): 100.0%
Gilts, which displayed a LH surge ([4]; 100 mcg T in gel at 120 h post-MATRIX, number of n = 6 catheterized gilts): 4
Onset of LH surge ([4]; 100 mcg T in gel at 120 h post-MATRIX, relative to time of treatment, LS mean ± SE): 4 ± 3
Gilts, which displayed a LH surge ([4]; 200 mcg T in gel at 120 h post-MATRIX, number of n = 7 catheterized gilts): 1
Duration of LH surge ([4]; 200 mcg T in gel at 120 h post-MATRIX, one gilt with surge): 18
Onset of LH surge [4, 6]: 0.5
Time of maximum LH conc. [4, 6]: 4 h
Gilts, which displayed a LH surge ([4]; 400 mcg T in gel at 120 h post-MATRIX, number of n = 6 catheterized gilts): 5
Onset of LH surge ([4]; 400 mcg T in gel at 120 h post-MATRIX, relative to time of treatment, LS mean ± SE): 4 ± 4
% of Sows Ovulating ([5]; 128 h post-MATRIX (8 h post-T)): 0.0%
% of Sows Ovulating ([5]; 136 h post-MATRIX (16 h post-T)): 10.0%
% of Sows Ovulating ([5]; 144 h post-MATRIX (24 h post-T)): 30.0%
% of Sows Ovulating ([5]; 152 h post-MATRIX (32 h post-T)): 70.0%
% of Sows Ovulating ([5]; 160 h post-MATRIX (40 h post-T)): 80.0%
% of Sows Ovulating ([5]; 168 h post-MATRIX (48 h post-T)): 90.0%
% of Sows Ovulating ([5]; 176 h post-MATRIX (56 h post-T)): 100.0%
